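Dose response: 5 concentrations. Exposure: 48 h. Format: 96-well plates. Endpoint: linear interpolation; highest concentration if not reached. Definition used: TGI = concentration required for complete inhibition of growth.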
Columns and labels:
Assay in all cases: NCI anticancer screen, dose series, 48 h
786-0 renal = system: 786-0 renal
A549 NSCLC = system: A549 NSCLC
CAKI-1 renal = system: CAKI-1 renal
COLO 205 colon = system: COLO 205 colon
EKVX NSCLC = system: EKVX NSCLC
HCT-116 colon = system: HCT-116 colon
HCT-15 colon = system: HCT-15 colon
HT29 colon = system: HT29 colon
KM12 colon = system: KM12 colon
NCI-H460 lung = system: NCI-H460 lung
OVCAR-4 ovarian = system: OVCAR-4 ovarian
OVCAR-5 ovarian = system: OVCAR-5 ovarian
SK-MEL-2 melanoma = system: SK-MEL-2 melanoma
TK-10 renal = system: TK-10 renal
U251 CNS = system: U251 CNS
UACC-257 melanoma = system: UACC-257 melanoma
MCF7 breast = system: MCF7 breast
PC-3 prostate = system: PC-3 prostate
SK-OV-3 ovarian = system: SK-OV-3 ovarian

Row | SMILES | TGI (786-0 renal) | TGI (A549 NSCLC) | TGI (CAKI-1 renal) | TGI (COLO 205 colon) | TGI (EKVX NSCLC) | TGI (HCT-116 colon) | TGI (HCT-15 colon) | TGI (HT29 colon) | TGI (KM12 colon) | TGI (NCI-H460 lung) | TGI (OVCAR-4 ovarian) | TGI (OVCAR-5 ovarian) | TGI (SK-MEL-2 melanoma) | TGI (TK-10 renal) | TGI (U251 CNS) | TGI (UACC-257 melanoma) | TGI (MCF7 breast) | TGI (PC-3 prostate) | TGI (SK-OV-3 ovarian)
1 | COC(=O)c1ccc(OCc2ccc3nc(OC)c(OC)nc3c2)cc1 | > 100 µM | > 100 µM | > 100 µM | > 100 µM | > 100 µM | > 100 µM | > 100 µM | > 100 µM | > 100 µM | > 100 µM | > 100 µM | > 100 µM | > 100 µM | > 100 µM | > 100 µM | > 100 µM |  |  | 
2 | CN(NC(=O)c1ccco1)C1=NCCN1 | > 100 µM | > 100 µM |  | > 100 µM | > 100 µM | > 100 µM | > 100 µM | > 100 µM | > 100 µM | > 100 µM | > 100 µM | > 100 µM | > 100 µM | > 100 µM | > 100 µM | > 100 µM | > 100 µM | > 100 µM | > 100 µM
3 | N#Cc1c2ccc([N+](=O)[O-])cc2c(=O)n2c1sc1ccc(C(F)(F)F)cc12 | > 100 µM | > 100 µM | > 100 µM | > 100 µM | > 100 µM | > 100 µM | > 100 µM | > 100 µM | > 100 µM | > 100 µM | > 100 µM | > 100 µM |  | > 100 µM | > 100 µM | > 100 µM |  |  | > 100 µM
4 | O=C(O)/C=C/n1c2ccccc2c(=O)c2ccccc21 | > 100 µM | > 100 µM | > 100 µM | > 100 µM | > 100 µM | > 100 µM | > 100 µM | > 100 µM | > 100 µM | > 100 µM | > 100 µM | > 100 µM | > 100 µM |  | > 100 µM | > 100 µM |  |  | 
5 | COC(=O)CCCN(C)c1n[nH]c(N)n1 | > 100 µM | > 100 µM |  | > 100 µM | > 100 µM | > 100 µM | > 100 µM | > 100 µM | > 100 µM | > 100 µM | > 100 µM | > 100 µM |  | > 100 µM | > 100 µM | > 100 µM |  |  | > 100 µM
6 | Cc1nc2c(n1CCO)C(=O)c1ccccc1C2=O | > 100 µM | > 100 µM |  | 41.9 µM | > 100 µM | 43 µM | > 100 µM | > 100 µM | > 100 µM | > 100 µM | 99 µM |  | 53 µM | > 100 µM | 91.8 µM | 34 µM |  |  | > 100 µM
7 | Cn1c2ccccc2c2c(-c3ccccc3)[n+]3ccccc3nc21 | 65.4 µM | > 100 µM | > 100 µM | > 100 µM | > 100 µM |  | > 100 µM | > 100 µM | 32.7 µM | 59.6 µM | > 100 µM | > 100 µM | 40.4 µM | 85 µM | 64.7 µM | 36.9 µM |  | > 100 µM | > 100 µM
8 | Cc1ccc(S(=O)(=O)N2CCN(S(=O)(=O)c3ccc(C)cc3)Cc3ccccc3C2)cc1 | > 100 µM | > 100 µM | > 100 µM | > 100 µM | > 100 µM | > 100 µM | > 100 µM | > 100 µM | > 100 µM | > 100 µM | 90.8 µM |  | > 100 µM | > 100 µM |  | > 100 µM | > 100 µM |  | 
9 | COc1cccc2c1CCc1ccccc1CC2=O | > 100 µM | > 100 µM | > 100 µM | > 100 µM | > 100 µM | > 100 µM | > 100 µM | > 100 µM | > 100 µM | > 100 µM | > 100 µM | > 100 µM | > 100 µM | > 100 µM | > 100 µM | > 100 µM |  |  | > 100 µM
10 | COc1ccc(N2C(=O)C3c4[nH]c5ccc(OC)cc5c4C4CCC(C(C)(C)C)CC4C3C2=O)cc1 (stereo unspecified) | 66.1 µM | > 100 µM | > 100 µM | > 100 µM | 92.3 µM | 26.1 µM | > 100 µM | > 100 µM | > 100 µM | > 100 µM | 43.6 µM | > 100 µM | 70.4 µM | > 100 µM | 44.8 µM | > 100 µM |  |  | 80 µM
11 | CN(C)c1ccc(-c2cc(=O)c3cc4c(cc3[nH]2)OCO4)cc1 | > 100 µM | > 100 µM |  | > 100 µM | > 100 µM | > 100 µM | > 100 µM | > 100 µM |  | > 100 µM | > 100 µM |  | > 100 µM | > 100 µM | > 100 µM | > 100 µM |  |  | 
12 | COc1cc2c(cc1OCCCOc1cc(-c3ccc(F)cc3)nc(C)n1)N=C[C@@H]1CCCN1C2=O | 31.5 µM | 43 µM | 31.9 µM | > 100 µM | 39.3 µM | 30.6 µM | 25.8 µM | > 100 µM | 36.2 µM | > 100 µM | > 100 µM |  | 35.2 µM | 34.5 µM | 28.7 µM | 43 µM | > 100 µM |  | 62.7 µM
13 | COc1cc(OC)cc(Oc2nc3ccccc3nc2C(=O)O)c1 | > 100 µM | > 100 µM | > 100 µM | > 100 µM | > 100 µM | > 100 µM | > 100 µM | > 100 µM | > 100 µM | > 100 µM | > 100 µM | > 100 µM | > 100 µM | > 100 µM | > 100 µM | > 100 µM |  | > 100 µM | > 100 µM
14 | C/C(=N\NS(=O)(=O)c1ccc(C)cc1)C(CN1CCOCC1)C(c1ccccc1)c1c(O)c2ccccc2oc1=O (stereo unspecified) | > 100 µM | > 100 µM | > 100 µM | > 100 µM | > 100 µM | > 100 µM | > 100 µM | > 100 µM | > 100 µM | > 100 µM | > 100 µM | > 100 µM | > 100 µM | > 100 µM | > 100 µM | > 100 µM |  |  | > 100 µM
15 | CNC(=O)CN(CC(=O)NC)C(=O)NC | > 100 µM | > 100 µM | > 100 µM | > 100 µM | > 100 µM |  | > 100 µM | > 100 µM | > 100 µM |  | > 100 µM | > 100 µM | > 100 µM | > 100 µM | > 100 µM | > 100 µM |  |  | > 100 µM
